Measurements: patent US5354843A, “Flanking peptides of calcitonin and processes for their manufacture” (Ciba-Geigy Corporation, priority 1988, dated 1994)

Assay: isoelectric point
Format: physicochemical
Source text: FAB-MS: MH^+ 6220 (calculated molecular weight: 6220), isoelectric point: 4.2 (calculated: 4.04).

isoelectric point: 4.2
Substance: human procalcitonin amino-terminal flanking peptide [PCATFP]
